# Source: ChEMBL document CHEMBL1158147, “Ultraviolet-mediated cytotoxic activity of phenylheptatriyne from Bidens pilosa L” (J Nat Prod, 1979)
# Active and inactive are the calls of the source. The calls are words filed in the database; no cut-off is given here.
# Columns and labels:
# [1] = test system: Trichophyton mentagrophytes; assay: Phototoxicity against Trichophyton mentagrophytes at 10 ug/disk in presence of long wave UV light; type: functional, organism-based
# DNA [2] = assay: Photochemical activity against denatured calf thymus DNA at in dark after 120 mins by hyperchromicity test; type: nucleic-acid assay; details: Bos taurus; further: unit not given here
# Candida albicans [3] = assay: Phototoxicity against Candida albicans at 5 ug/disk after UV irradiation for 15 mins; type: functional; details: light or radiation study, 0.25 h, read-out: IZ
# [4] = test system: Staphylococcus epidermidis; assay: Phototoxicity against Staphylococcus albus at 10 ug/disk in dark; type: functional, organism-based
# DNA [5] = assay: Photochemical activity against denatured calf thymus DNA at 10 ug after UV irradiation with 5.33 Joules/cm'2 for 60 mins by hyperchromicity test; type: nucleic-acid assay; details: Bos taurus
# [6] = test system: Staphylococcus epidermidis; assay: Phototoxicity against Staphylococcus albus at 10 ug/disk in presence of long wave UV light; type: functional, organism-based
# DNA [7] = assay: Photochemical activity against denatured calf thymus DNA at 10 ug in dark by hyperchromicity test; type: nucleic-acid assay; details: Bos taurus; further: unit not given here
# Rhodotorula mucilaginosa [8] = assay: Phototoxicity against Rhodotorula rubra Y96 at 10 ug/disk in presence of long wave UV light; type: functional, organism-based
# Candida albicans [9] = assay: Phototoxicity against Candida albicans at 5 ug/disk after UV irradiation for 30 mins; type: functional; details: light or radiation study, 0.5 h, read-out: IZ
# DNA [10] = assay: Photochemical activity against denatured calf thymus DNA 10 ug after UV irradiation with 2.67 Joules/cm'2 for 30 mins at by hyperchromicity test; type: nucleic-acid assay; details: Bos taurus
# Escherichia coli [11] = assay: Phototoxicity against Escherichia coli at 10 ug/disk in dark; type: functional, organism-based
# Torula [12] = assay: Phototoxicity against Torula sp. at 10 ug/disk in dark; type: functional, organism-based
# Proteus mirabilis [13] = assay: Phototoxicity against Proteus mirabilis UBC 5 at 10 ug/disk in presence of long wave UV light; type: functional, organism-based
# Candida albicans [14] = assay: Phototoxicity against Candida albicans at 10 ug/disk in presence of long wave UV light; type: functional, organism-based
# Microsporum canis [15] = assay: Phototoxicity against Microsporum canis at 10 ug/disk in presence of cool-white fluorescent light; type: functional, organism-based
# DNA [16] = assay: Photochemical activity against denatured calf thymus DNA at 10 ug in dark after 30 mins by hyperchromicity test; type: nucleic-acid assay; details: Bos taurus
# Sporobolomyces [17] = assay: Phototoxicity against Sporobolomyces sp. Y138 at 10 ug/disk in dark; type: functional, organism-based
# Pseudomonas fluorescens [18] = assay: Phototoxicity against Pseudomonas fluorescens at 10 ug/disk in presence of long wave UV light; type: functional, organism-based
# [19] = test system: Trichophyton mentagrophytes; assay: Phototoxicity against Trichophyton mentagrophytes at 10 ug/disk in dark; type: functional, organism-based
# Saccharomyces cerevisiae [20] = assay: Phototoxicity against Saccharomyces cerevisiae at 10 ug/disk in presence of long wave UV light; type: functional, organism-based
# [21] = test system: Trichophyton mentagrophytes; assay: Phototoxicity against Trichophyton mentagrophytes at 10 ug/disk in presence of cool-white fluorescent light; type: functional, organism-based
# Proteus mirabilis [22] = assay: Phototoxicity against Proteus mirabilis UBC 5 at 10 ug/disk in dark; type: functional, organism-based
# Candida albicans [23] = assay: Phototoxicity against Candida albicans at 10 ug/disk in dark; type: functional, organism-based
# Saccharomyces cerevisiae [24] = assay: Phototoxicity against Saccharomyces cerevisiae at 10 ug/disk in dark; type: functional, organism-based
# Kocuria rosea [25] = assay: Phototoxicity against Micrococcus roseus UBC 289 at 10 ug/disk in presence of long wave UV light; type: functional, organism-based
# Bacillus subtilis [26] = assay: Phototoxicity against Bacillus subtilis at 10 ug/disk in dark; type: functional, organism-based
# Saccharomyces cerevisiae [27] = assay: Phototoxicity against Saccharomyces cerevisiae at 5 ug/disk after UV irradiation for 180 mins; type: functional; details: light or radiation study, 3 h, read-out: IZ
# Rhodotorula mucilaginosa [28] = assay: Phototoxicity against Rhodotorula rubra Y96 at 10 ug/disk in dark; type: functional, organism-based
# Paraphyton cookei [29] = assay: Phototoxicity against Microsporum cookei at 10 ug/disk in dark; type: functional, organism-based
# Enterococcus faecalis [30] = assay: Phototoxicity against Streptococcus faecalis at 10 ug/disk in presence of long wave UV light; type: functional, organism-based
# Escherichia coli [31] = assay: Phototoxicity against Escherichia coli at 10 ug/disk in presence of long wave UV light; type: functional, organism-based
# Proteus mirabilis [32] = assay: Phototoxicity against Proteus mirabilis UBC 5 at 10 ug/disk in presence of cool-white fluorescent light; type: functional, organism-based
# DNA [33] = assay: Photochemical activity against denatured calf thymus DNA at 10 ug by hyperchromicity test; type: nucleic-acid assay; details: Bos taurus
# Nannizzia gypsea [34] = assay: Phototoxicity against Microsporum gypseum at 10 ug/disk in presence of cool-white fluorescent light; type: functional, organism-based
# Sporobolomyces [35] = assay: Phototoxicity against Sporobolomyces sp. Y138 at 10 ug/disk in presence of cool-white fluorescent light; type: functional, organism-based
# Fusarium sp. [36] = assay: Phototoxicity against Fusarium sp. at 10 ug/disk in presence of long wave UV light; type: functional, organism-based
# DNA [37] = assay: Photochemical activity against denatured calf thymus DNA at 10 ug after UV irradiation with 10.67 Joules/cm'2 for 120 mins by hyperchromicity test; type: nucleic-acid assay; details: Bos taurus; further: unit not given here
# Escherichia coli [38] = assay: Phototoxicity against Escherichia coli at 10 ug/disk in presence of cool-white fluorescent light; type: functional, organism-based
# DNA [39] = assay: Photochemical activity against denatured calf thymus DNA at 10 ug after UV irradiation with 16.00 Joules/cm'2 for 180 mins by hyperchromicity test; type: nucleic-acid assay; details: Bos taurus
# Microsporum canis [40] = assay: Phototoxicity against Microsporum canis at 10 ug/disk in presence of long wave UV light; type: functional, organism-based
# Nannizzia gypsea [41] = assay: Phototoxicity against Microsporum gypseum at 10 ug/disk in presence of long wave UV light; type: functional, organism-based
# Candida albicans [42] = assay: Phototoxicity against Candida albicans at 5 ug/disk after UV irradiation for 180 mins; type: functional; details: light or radiation study, 3 h, read-out: IZ
# Torula [43] = assay: Phototoxicity against Torula sp. at 10 ug/disk in presence of long wave UV light; type: functional, organism-based
# Nannizzia gypsea [44] = assay: Phototoxicity against Microsporum gypseum at 10 ug/disk in dark; type: functional, organism-based
# Enterococcus faecalis [45] = assay: Phototoxicity against Streptococcus faecalis at 10 ug/disk in presence of cool-white fluorescent light; type: functional, organism-based
# Saccharomyces cerevisiae [46] = assay: Phototoxicity against Saccharomyces cerevisiae at 5 ug/disk after UV irradiation for 15 mins; type: functional; details: light or radiation study, 0.25 h, read-out: IZ
# Bacillus subtilis [47] = assay: Phototoxicity against Bacillus subtilis at 10 ug/disk in presence of long wave UV light; type: functional, organism-based
# Saccharomyces cerevisiae [48] = assay: Phototoxicity against Saccharomyces cerevisiae at 5 ug/disk after UV irradiation for 30 mins; type: functional; details: light or radiation study, 0.5 h, read-out: IZ
# Saccharomyces cerevisiae [49] = assay: Phototoxicity against Saccharomyces cerevisiae at 10 ug/disk in presence of cool-white fluorescent light; type: functional, organism-based
# Sporobolomyces [50] = assay: Phototoxicity against Sporobolomyces sp. Y138 at 10 ug/disk in presence of long wave UV light; type: functional, organism-based
# Candida albicans [51] = assay: Phototoxicity against Candida albicans at 10 ug/disk in presence of cool-white fluorescent light; type: functional, organism-based
# Fusarium sp. [52] = assay: Phototoxicity against Fusarium sp. at 10 ug/disk in presence of cool-white fluorescent light; type: functional, organism-based
# Microsporum canis [53] = assay: Phototoxicity against Microsporum canis at 10 ug/disk in dark; type: functional, organism-based
# Paraphyton cookei [54] = assay: Phototoxicity against Microsporum cookei at 10 ug/disk in presence of long wave UV light; type: functional, organism-based
# [55] = test system: Staphylococcus epidermidis; assay: Phototoxicity against Staphylococcus albus at 10 ug/disk in presence of cool-white fluorescent light; type: functional, organism-based
# Paraphyton cookei [56] = assay: Phototoxicity against Microsporum cookei at 10 ug/disk in presence of cool-white fluorescent light; type: functional, organism-based
# DNA [57] = assay: Photochemical activity against denatured calf thymus DNA at in dark after 180 mins by hyperchromicity test; type: nucleic-acid assay; details: Bos taurus
# Enterococcus faecalis [58] = assay: Phototoxicity against Streptococcus faecalis at 10 ug/disk in dark; type: functional, organism-based
# Kocuria rosea [59] = assay: Phototoxicity against Micrococcus roseus UBC 289 at 10 ug/disk in dark; type: functional, organism-based
# Kocuria rosea [60] = assay: Phototoxicity against Micrococcus roseus UBC 289 at 10 ug/disk in presence of cool-white fluorescent light; type: functional, organism-based
# Pseudomonas fluorescens [61] = assay: Phototoxicity against Pseudomonas fluorescens at 10 ug/disk in dark; type: functional, organism-based
# Fusarium sp. [62] = assay: Phototoxicity against Fusarium sp. at 10 ug/disk in dark; type: functional, organism-based
# DNA [63] = assay: Photochemical activity against denatured calf thymus DNA at 10 ug in dark after 60 mins by hyperchromicity test; type: nucleic-acid assay; details: Bos taurus; further: unit not given here
# Pseudomonas fluorescens [64] = assay: Phototoxicity against Pseudomonas fluorescens at 10 ug/disk in presence of cool-white fluorescent light; type: functional, organism-based
smiles,measurement,setting,value
COc1c2occc2cc2ccc(=O)oc12 [METHOXSALEN],Activity,[1],Active
same,Activity,DNA [2],0.17
same,zone of inhibition at 5 µg/disc,Candida albicans [3],13 mm
same,Activity,[4],inactive
same,Activity,DNA [5],0.18
same,Activity,[6],Active
same,Activity,DNA [7],0.17
same,Activity,Rhodotorula mucilaginosa [8],Active
same,zone of inhibition at 5 µg/disc,Candida albicans [9],15 mm
same,Activity,DNA [10],0.18
same,Activity,Escherichia coli [11],inactive
same,Activity,Torula [12],inactive
same,Activity,Proteus mirabilis [13],Active
same,Activity,Candida albicans [14],Active
same,Activity,Microsporum canis [15],Active
same,Activity,DNA [16],0.17
same,Activity,Sporobolomyces [17],inactive
same,Activity,Pseudomonas fluorescens [18],inactive
same,Activity,[19],inactive
same,Activity,Saccharomyces cerevisiae [20],Active
same,Activity,[21],inactive
same,Activity,Proteus mirabilis [22],inactive
same,Activity,Candida albicans [23],inactive
same,Activity,Saccharomyces cerevisiae [24],inactive
same,Activity,Kocuria rosea [25],Active
same,Activity,Bacillus subtilis [26],inactive
same,zone of inhibition at 5 µg/disc,Saccharomyces cerevisiae [27],20 mm
same,Activity,Rhodotorula mucilaginosa [28],inactive
same,Activity,Paraphyton cookei [29],inactive
same,Activity,Enterococcus faecalis [30],Active
same,Activity,Escherichia coli [31],Active
same,Activity,Proteus mirabilis [32],inactive
same,Activity,DNA [33],0.18
same,Activity,Nannizzia gypsea [34],Active
same,Activity,Sporobolomyces [35],Active
same,Activity,Fusarium sp. [36],Active
same,Activity,DNA [37],0.17
same,Activity,Escherichia coli [38],inactive
same,Activity,DNA [39],0.18
same,Activity,Microsporum canis [40],Active
same,Activity,Nannizzia gypsea [41],Active
same,zone of inhibition at 5 µg/disc,Candida albicans [42],17 mm
same,Activity,Torula [43],Active
same,Activity,Nannizzia gypsea [44],inactive
same,Activity,Enterococcus faecalis [45],inactive
same,zone of inhibition at 5 µg/disc,Saccharomyces cerevisiae [46],17 mm
same,Activity,Bacillus subtilis [47],Active
same,zone of inhibition at 5 µg/disc,Saccharomyces cerevisiae [48],18 mm
same,Activity,Saccharomyces cerevisiae [49],Active
same,Activity,Sporobolomyces [50],Active
same,Activity,Candida albicans [51],Active
same,Activity,Fusarium sp. [52],inactive
same,Activity,Microsporum canis [53],inactive
same,Activity,Paraphyton cookei [54],Active
same,Activity,[55],Active
same,Activity,Paraphyton cookei [56],Active
same,Activity,DNA [57],0.17
same,Activity,Enterococcus faecalis [58],inactive
same,Activity,Kocuria rosea [59],inactive
same,Activity,Kocuria rosea [60],inactive
same,Activity,Pseudomonas fluorescens [61],inactive
same,Activity,Fusarium sp. [62],inactive
same,Activity,DNA [63],0.17
same,Activity,Pseudomonas fluorescens [64],inactive
